In US6596700B2, “Methods of treating hepatitis delta virus infection with β-L-2'-deoxy-nucleosides” (priority 2000, dated 2003):
pEC50, pIC50: −log10 of the molar value. Where two headings read alike, the source gives them in different places.

Columns and labels:
[1] = test system: HDV; settings: cited from earlier work
[2] = test system: HDV; settings: chronically infected animals; cited from earlier work
[3] = test system: hepatitis B surface antigen; settings: in vivo; cited from earlier work
[4] = test system: HDV; settings: patients with chronic delta hepatitis; cited from earlier work
[5] = test system: HDV; settings: in vivo, cited from earlier work
[6] = test system: hepatitis B virus; test: anti-hepatitis B virus activity in transfected Hep G-2 (2.2.15) cells; type: cell-based
[7] = test system: Hep G-2 (2.2.15) cells; test: cytotoxicity in Hep G-2 (2.2.15) cells; settings: read-out: Cytotoxicity IC50
[8] = test system: woodchuck hepatitis virus (WHV); test: woodchuck chronic hepatitis model, WHV DNA in serum; type: in vivo, woodchucks (Marmota monax); settings: for activity compared with 3TC (lamivudine): 3TC 10 mg/kg/day; for ng WHV-DNA per ml serum: orally once a day at 10 mg/kg; for activity in the in vivo model / level to which viral load is reduced: woodchucks chronically infected with WHV
Experimental: The efficacy of L-dA, L-dT and L-dC against hepadnavirus infection in woodchucks (Marmota monax) chronically infected with woodchuck hepatitis virus (WHV) was determined. This animal model of HBV infection is widely accepted and has proven to be useful for the evaluation of antiviral agents directed against HBV. There were 3 animals per drug group, and 4 animals per control. In group 1, the animals received a vehicle control; group 2 received lamivudine (3TC) (10 mg/kg/day); groups 3-6 received L-dA (0.01, 0.1, 1.0, 10 mg/kg/day, respectively); groups 7-10 received L-dT (0.01, 0.1, 1.0, 10 mg/kg/day, respectively); and groups 11-14 received L-dC (0.01, 0.1, 1.0, 10 mg/kg/day). […] Assessment of the activity and toxicity was based on the reduction of WHV DNA in serum: dot-blot, quantative PCR.

[9] = test system: BFU-E; test: human bone marrow clonogenic assay, BFU-E; type: cell-based
[10] = test system: hepatitis B; settings: for pIC50: single agent, hepatitis B replication in 2.2.15 cells
[11] = test system: CFU-GM; test: human bone marrow clonogenic assay, CFU-GM; settings: effect on cell growth
[12] = test system: CFU-GM
[13] = extracellular DNA, read-out: HBV virions EC50
[14] = replicative intermediates (intracellular DNA), read-out: HBV Ri EC50
[15] = day 0, limit of detection 1 ng/ml

| Compound | pEC50 [6, 13] | pEC50 [6, 14] | pIC50 [7] | activity compared with 3TC (lamivudine) [8] | ng WHV-DNA per ml serum [8, 15] [ng/mL] | ng WHV-DNA per ml serum ([8]; day 1) [ng/mL] | ng WHV-DNA per ml serum ([8]; day 3) [ng/mL] | ng WHV-DNA per ml serum ([8]; day 7) [ng/mL] | ng WHV-DNA per ml serum ([8]; day 14) [ng/mL] | activity in the in vivo model [8] | level to which viral load is reduced [8] | BFU-E [9] [µM] | other results |
| --- | --- | --- | --- | --- | --- | --- | --- | --- | --- | --- | --- | --- | --- |
| Nc1nc2c(ncn2COCCO)c(=O)[nH]1 [Acyclovir] |  |  |  |  |  |  |  |  |  |  |  |  | HDV replication ([1]; in vitro): enhances HDV replication in vitro |
| Cc1cn([C@H]2O[C@@H](CO)[C@H](O)[C@H]2F)c(=O)[nH]c1=O [L-FMAU, 2′-fluoro-5-methyl-beta-L-arabinofuranosyluridine] |  |  |  |  |  |  |  |  |  |  |  |  | inhibition of HDV [2]: potent inhibitor of HDV; level of hepatitis B surface antigen [3]: significantly reduces the level of hepatitis B surface antigen |
| Nc1ccn([C@@H]2CS[C@H](CO)O2)c(=O)n1 [Lamuvidine, β-L-2′,3′-dideoxy-3′-thiacytidine] |  |  |  |  |  |  |  |  |  |  |  |  | disease activity and HDV-RNA levels [4]: does not improve disease activity or lower HDV-RNA levels |
| NC(=O)c1ncn([C@@H]2O[C@H](CO)[C@@H](O)[C@H]2O)n1 [Ribavirin] |  |  |  |  |  |  |  |  |  |  |  |  | side-effects [5]: severe side-effects; virological or biochemical parameters [5]: did not significantly affect virological or biochemical parameters |
| Cc1ccc(C(=O)Nc2ccc(S(=O)(=O)O)c3cc(S(=O)(=O)O)cc(S(=O)(=O)O)c23)cc1NC(=O)c1cccc(NC(=O)Nc2cccc(C(=O)Nc3cc(C(=O)Nc4ccc(S(=O)(=O)O)c5cc(S(=O)(=O)O)cc(S(=O)(=O)O)c45)ccc3C)c2)c1 [suramin] |  |  |  |  |  |  |  |  |  |  |  |  | toxicity ([5]; human): too toxic to be acceptable for long term use in humans; entry of the virion into hepatocytes [1]: blocks the entry of the virion into hepatocytes |
| Nc1ncnc2c1ncn2[C@@H]1C[C@@H](O)[C@H](CO)O1 [β-L-dA, 2′-Deoxy-β-L-adenosine] | 7.00 | 7.00 | < 3.70 | more active than 3TC | 436 | 369 | 140 | 102 | 74 | highly active | nearly undetectable |  | BFU-E ([9]; effect on cell growth, human bone marrow clonogenic assay): >10 µM; % Inhibition ([10]; single agent 0.005 μM): 1%; % Inhibition ([10]; single agent 0.05 μM): 24%; % Inhibition ([10]; single agent 0.5 μM): 90%; pIC50 [10]: 7.05; CFU-GM [11]: >10 µM |
| Nc1ccn([C@@H]2C[C@@H](O)[C@H](CO)O2)c(=O)n1 [β-L-dC, 2′-Deoxy-β-L-cytidine] | 7.30 | 7.30 | < 3.70 | more active than 3TC | 426 | 123 | 62 | 46 | 20 | highly active | nearly undetectable | >10 | % Inhibition ([10]; single agent 0.005 μM): 10%; % Inhibition ([10]; single agent 0.05 μM): 40%; % Inhibition ([10]; single agent 0.5 μM): 95%; pIC50 [10]: 7.22; CFU-GM [11]: >10 µM |
| O=c1[nH]cnc2c1ncn2[C@@H]1C[C@@H](O)[C@H](CO)O1 [β-L-dI, 2′-deoxy-β-L-inosine] | 6.00 | 6.00 | < 3.70 |  |  |  |  |  |  |  |  |  |  |
| Cc1cn([C@@H]2C[C@@H](O)[C@H](CO)O2)c(=O)[nH]c1=O [β-L-dT, 2′-Deoxy-β-L-thymidine] | 7.30 | 7.30 | < 3.70 | more active than 3TC | 423 | 45 | 14 | 6 | 1 | highly active | undetectable | >10 | viral rebound after withdrawal ([8]; post-treatment): viral rebound is not detected for at least two weeks; CFU-GM [12]: >10 µM |
| O=c1ccn([C@@H]2C[C@@H](O)[C@H](CO)O2)c(=O)[nH]1 [β-L-dU, β-L-2′-deoxyuridine] | 5.30 | 5.30 | < 3.70 |  |  |  |  |  |  |  |  | >10 | CFU-GM [12]: >10 µM |
